# Read-outs that look alike come from different tables or passages of the source.
# Legend:
# CALU (lung) = assay: In vitro growth inhibition of CALU tumor cells (radiometric BACTEC); format: cell-based, human; conditions: for IC50: Homo sapiens
# Text: (§1) CELL LINES: Eight different established human cell lines CALU (lung), COLO320 (colon), H578St (breast), HT-29 (colon), MCF-7 (breast), OM-1 (colon), SKLU (lung) and SKMES (lung), and two control cell lines (bone marrow andr fibroblasts) were utilized.
# (§2) All cell lines were obtained from the Tumor Cloning Laboratory, Institute for Drug Development, Cancer Therapy and Research Center, San Antonio, Tex. All cell lines grew as monolayers in the appropriate culture medium supplemented with heat-inactivated calf serum. All reagents were obtained from Grand Island Biological Co., Grand Island, N.Y.
# (§3) The iv formulations of the compounds of the present invention were prepared with sterile buffered saline and stored at -70° C. until required for testing.
# (§4) Following trypsinization, tumor cells were suspended in tissue culture medium and exposed to the antitumor agents continuously at three different concentrations: 10, 1 and 0.1 μg/ml.
# (§5) RADIOMETRIC MEASUREMENT OF GROWTH INHIBITION: Growth inhibition was assessed with the BACTEC System 460 (Johnston Laboratories, Towson, Md.) after addition of the antitumor agent in the respective growth medium containing ^14 C-glucose at a final concentration of 2 μCi/ml.
# (§6) Two mls of the tumor cell suspension containing radioactive glucose were seeded into sterile, disposable 15 ml vials by injection through self-sealing rubber-aluminum caps. […] The seeded vials were then incubated at 37° C. Measurement of the release of ^14 CO2 resulting from the metabolism of ^14 C-glucose were performed on days 6, 9, 12, and 15 in the BACTEC instrument. This instrument flushes the ^14 CO2 containing air out of the vials into an ionization chamber that converts dpm to growth index values. […] Each data point represents triplicate values.
# (§7) All compounds were dosed on an equimilimolar basis. […] [formula]
# MCF-7 (breast) = assay: In vitro growth inhibition of MCF-7 tumor cells (radiometric BACTEC); format: cell-based, human; conditions: for IC50: Homo sapiens, MCF7
# Text: as §1, §2, §3, §4, §5, §6, §7
# HS578T (breast) = assay: In vitro growth inhibition of HS578T tumor cells (radiometric BACTEC); format: cell-based; conditions: Homo sapiens, Hs-578T, concentration required to kill 50% of the untreated cancer cells
# Text: as §1
# as §2, with “N.Y. […]” for “N.Y.”
# (§8) RADIOMETRIC MEASUREMENT OF GROWTH INHIBITION: Growth inhibition was assessed with the BACTEC System 460 (Johnston Laboratories, Towson, Md.) after addition of the antitumor agent in the respective growth medium containing ^14 C-glucose at a final concentration of 2 μCi/ml. […]
# (§9) Two mls of the tumor cell suspension containing radioactive glucose were seeded into sterile, disposable 15 ml vials by injection through self-sealing rubber-aluminum caps. […] Chemotherapy sensitivity was calculated by comparing the growth index values of drug-treated vials to that observed in control vials. […]
# (§10) The data presented in Table I are compared to results achieved with 5-FU as the control. […] In this regard, a therapeutic ratio for a given compound is typically determined by the following calculation. […]
# SKMES (lung) = assay: In vitro growth inhibition of SKMES tumor cells (radiometric BACTEC); format: cell-based, human; conditions: for IC50: Homo sapiens
# Text: as §1, §2, §3, §4, §5, §6, §7
# OM-1 (colon) = assay: In vitro growth inhibition of OM-1 tumor cells (radiometric BACTEC); format: cell-based; conditions: Homo sapiens, concentration required to kill 50% of the untreated cancer cells
# Text: as §1
# as §2, with “N.Y. […]” for “N.Y.”
# as §8, §9, §10
# HT29 (colon) = assay: In vitro growth inhibition of HT29 tumor cells (radiometric BACTEC); format: cell-based; conditions: Homo sapiens, HT-29, concentration required to kill 50% of the untreated cancer cells
# Text: as §1
# as §2, with “N.Y. […]” for “N.Y.”
# as §8, §9, §10
# SKLU (lung) = assay: In vitro growth inhibition of SKLU tumor cells (radiometric BACTEC); format: cell-based; conditions: Homo sapiens, concentration required to kill 50% of the untreated cancer cells
# Text: as §1
# as §2, with “N.Y. […]” for “N.Y.”
# as §8, §9, §10
# COLO320 (colon) = assay: In vitro growth inhibition of COLO320 tumor cells (radiometric BACTEC); format: cell-based; conditions: Homo sapiens, COLO 320, concentration required to kill 50% of the untreated cancer cells
# Text: as §1
# as §2, with “N.Y. […]” for “N.Y.”
# as §8, §9, §10
# [1] = known drug, background; cited from earlier work
# [2] = In vitro growth inhibition/survival, bone marrow control cells (radiometric BACTEC); format: cell-based; conditions: human, continuous exposure (10, 1 and 0.1 μg/ml tested; concentration of this value not given)
# Text: as §1, §2, §3, §4, §5
# Two mls of the tumor cell suspension containing radioactive glucose were seeded into sterile, disposable 15 ml vials by injection through self-sealing rubber-aluminum caps. […]
Structure (SMILES),IC50 (CALU (lung)) [µg/mL],IC50 (MCF-7 (breast)) [µg/mL],IC50 (HS578T (breast)) [µg/mL],IC50 (SKMES (lung)) [µg/mL],IC50 (OM-1 (colon)) [µg/mL],IC50 (HT29 (colon)) [µg/mL],IC50 (SKLU (lung)) [µg/mL],IC50 (COLO320 (colon)) [µg/mL],side effects [1],viability [2] [%],"% SURVIVAL TUMOR (CALU (lung); CALU, continuous exposure (10, 1 and 0.1 μg/ml tested; concentration of this value not given)) [%]","IC50 (CALU (lung); CALU, concentration required to kill 50% of the untreated cancer cells, read-out: IC 50) [µg/mL]","IC50 (MCF-7 (breast); MCF-7, concentration required to kill 50% of the untreated cancer cells, read-out: IC 50) [µg/mL]","% SURVIVAL TUMOR (MCF-7 (breast); MCF-7, continuous exposure, concentration of this value not given) [%]","IC50 (SKMES (lung); SKMES, concentration required to kill 50% of the untreated cancer cells, read-out: IC 50) [µg/mL]","% SURVIVAL TUMOR (SKMES (lung); SKMES, continuous exposure, concentration of this value not given) [%]"
"O=c1[nH]cc(F)c(=O)[nH]1 [5-FU, 5-fluorouracil]",< 0.6,< 0.6,> 0.6,< 0.6,1.47,0.613,1.05,< 0.6,"nausea, vomiting, diarrhea, leukopenia, thrombocytopenia, alopecia",38.6,,,,,,
O=c1[nH]c(=O)n([C@@H]2OC[C@H](O)[C@@H]2O)cc1F [α-L-erythrofuranosyl-5-fluorouracil],,,,,,,,,,104,85.3,> 10,> 10,52.7,> 10,67.4
